Experimental findings from ChEMBL document CHEMBL1201862, “PubChem BioAssay data set” (2004) are described below.

Holding throughout (experiment): growth of human tumour cells (NCI), 48 h
Assay [1] has as its system CCRF-CEM.
The test system of assay [2] is COLO 205.
In assay [3] the test system is HCT-116.
The test system of assay [4] is M14.
Assay [5] deals with MCF7.
For assay [6], the system named is MDA-N.
For assay [7], the system named is PC-3.
For assay [8], the system named is RXF 393.
Assay [9] deals with SF-295.
Assay [10] concerns SK-MEL-28.
Assay [11] deals with SK-MEL-5.
For assay [12], the system named is SNB-19.
Assay [13] concerns T47D.
For assay [14], the system named is TK-10.
The subject of assay [15] is UACC-257.
The subject of assay [16] is EKVX.
The test system of assay [17] is Hs-578T.
In assay [18] the test system is SK-MEL-2.

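These data come from cells grown in 96-well plates and exposed to compound for 48 hours at five concentrations. Abbreviation: GI50, concentration required for 50% inhibition of growth.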 Calls of active or inactive are those of the source. Cut-off read from the data, not from the text of the source: active = GI50 up to about 1.1 µM and inactive = higher.

For the molecule `CN(C)c1ccc(/C=N/Nc2nc3ccccc3c(=O)n2-c2ccccc2)cc1`, the GI50 was > 100 µM (inactive) in assay [1]; > 100 µM (inactive) in assay [2]; 51.5 µM (inactive) in assay [3]; 78 µM (inactive) in [4]; > 100 µM (inactive) in assay [5]; 74.3 µM (inactive) in [6]. Also, the GI50 in assay [7] is 55.1 µM (inactive); in assay [8], 50.8 µM (inactive); in assay [9], 93.1 µM (inactive); in assay [10] it was > 100 µM (inactive); in [11] it was 56.9 µM (inactive); in assay [12], 34.9 µM (inactive). The GI50 in assay [13], in [14] and in assay [15] was > 100 µM (inactive) in each case.
For the molecule `CN1c2ccccc2C(=O)NC12CCNCC2`, the GI50 in assay [1] was > 100 µM (inactive); in [2], > 100 µM (inactive); in [16] it was > 100 µM (inactive); in assay [3] it was > 100 µM (inactive); in assay [17], 0.082 µM (active); in assay [4], > 100 µM (inactive). Moreover, the GI50 in assay [5], in assay [8], in assay [9], in [10], in [11] and in assay [12] was > 100 µM (inactive) in each case. Also, the GI50 in [13], in assay [14] and in assay [15] was > 100 µM (inactive) each time.
In the case of `c1ccc(CN2CCC(Nc3ccccc3)(c3nnnn3Cc3ccccc3)CC2)cc1`, the GI50 in assay [1] was 20 µM (inactive); in assay [2], 11.6 µM (inactive); in [16], 23.8 µM (inactive); in assay [3], 20.1 µM (inactive); in assay [17], 24.2 µM (inactive); in assay [4] it was 16.1 µM (inactive). In addition, the GI50 is 22.4 µM (inactive) in assay [5]; 27.4 µM (inactive) in [8]; 20.5 µM (inactive) in [9]; 17.2 µM (inactive) in assay [10]; 13 µM (inactive) in assay [11]; 27.3 µM (inactive) in assay [12]. Also, the values for the GI50 in assay [13], in [14] and in [15] were 19.5 µM (inactive), 29.2 µM (inactive) and 14.1 µM (inactive), respectively.
As for `C[N+](C)(C)CC(=O)N/N=C(/Cc1nc2ccc([N+](=O)[O-])cc2nc1O)C(=O)Nc1cc(C(F)(F)F)ccc1Cl`, the GI50 in [1] was 66.7 µM (inactive); in assay [2] it was > 100 µM (inactive); in assay [16] it was 76 µM (inactive); in assay [3], > 100 µM (inactive); in assay [4], > 100 µM (inactive); in [8], > 100 µM (inactive). In addition, the GI50 in assay [9], in [10], in assay [18], in assay [11], in assay [12] and in assay [14] was > 100 µM (inactive) in each case. In [15], the GI50 was > 100 µM (inactive).
Take `COc1ccccc1/C=C/C(=O)c1sc(-c2cccnc2)nc1C`: the GI50 is 84.3 µM (inactive) in assay [1]; > 100 µM (inactive) in [2]; > 100 µM (inactive) in [16]; 27.9 µM (inactive) in assay [8]; 46.5 µM (inactive) in [9]; > 100 µM (inactive) in assay [10]. Moreover, the GI50 is > 100 µM (inactive) in assay [18], 47.3 µM (inactive) in [11], > 100 µM (inactive) in [14] and > 100 µM (inactive) in assay [15].
